Experiments:
[1] = Cell viability assay (alamarBlue); type: cell-based, human; conditions: human, RD cells
Experimental: (§1) Firstly, we performed cell viability assay to evaluate the cytotoxicity profile of the 19 hits. Cells seeded overnight were treated with the hit compounds at 10 µM. […] Anti-EV-A71 activity of AGP-253 had been illustrated and discussed previously. We were particularly interested in ZAF-46 and ZAF-47 as they belonged to the same series bearing novel 14-quinolinoxy and 17-hydro-8,9-olefin modifications (Figure 2b) that could potentially open up new targets for EV-A71 therapeutics. Additional cell viability assays were performed for ZAF-46 and ZAF-47 at different concentrations to identify the low cytotoxic concentrations for downstream post-treatment assays. For post-treatment assays, cells seeded overnight were infected with EV-A71 and subsequently treated with ZAF-46 and ZAF-47 at different concentrations. […] Treatment with ZAF-46 led to 1.4 log reduction at 10 µM and 2.4 log reduction at 20 µM (Figure 2c) while treatment with ZAF-47 led to 0.8 log reduction at 5 µM, 1.1 log reduction at 10 µM and 2.1 log reduction at 20 µM (Figure 2d). CC50 and IC50 for both compounds were determined and used to derive their SI (Table 2). ZAF-47 was selected for further downstream analysis due to its higher SI value which indicate higher pharmacological value for clinical use.
(§2) To determine the cytotoxicity profiles of the hits, cell viability assay was performed. Seeded 96-well plates, with 2 × 10^4 RD cells per well, were incubated overnight at 37 °C with 5% CO2. Different concentrations of drug hits, diluted by reduced serum DMEM, were used to treat the seeded cells for 12 h at 37 °C with 5% CO2. Reduced serum DMEM, was employed as the negative control and 0.1% DMSO as the vehicle control for this step. Subsequently, the supernatant was replaced with alamarBlue^TM Cell Viability Reagent (Thermo Fisher Scientific, Waltham, MA, USA) (100 µL), diluted 10-fold in reduced serum DMEM, and incubated for 3 h at 37 °C with 5% CO2. Fluorescence intensity in each well was measured at 570 nm excitation wavelength and 600 nm emission wavelength in each well by the Infinite^TM 200 series microplate reader (Tecan, Männedorf, Switzerland) and normaliszd with the negative control to determine the relative cell viability.

RD cells = assay: Cell viability assay (alamarBlue); type: cell-based, human; conditions: 10 µM, 12 h
Experimental: as §1, §2

CC(=O)OC[C@]1(C)C(=O)CC[C@@]2(C)C(C/C=C3/C(=O)OC[C@@H]3Oc3cccc4cccnc34)=C(C)CC[C@@H]21 [ZAF-47, (14β)-(8′-Quinolinoxy)-3-ketone-9-dehydro-17-hydro-19-acetoxy–andrographolide]
CC50 at 12 h [1]: 29.6 µM | cytotoxicity (RD cells): low cytotoxicity
